The source of these data is PubChem BioAssay AID1996.

≈ marks a conversion by molar mass, not a printed value. Residues, ends and D or L forms follow the SMILES beside them.

The conditions of this series: buffer; pH 7.4; 200.0 µM.
As usually defined, the kinetic solubility is solubility judged after dilution from a stock solution rather than from solid. In the case of `CC1c2cccn2CCN1S(=O)(=O)c1ccc(F)cc1` (centres undefined), the solubility (kinetic) is over 44.2 µg/mL. On to `CC(NC(=O)C1CCCC1)c1ccc(Br)cc1` (centres undefined), for which the solubility (kinetic) worked out at 33.4 µg/mL (≈ 113 µM).

In the case of `CC(C)(C)c1ccc(NC(=S)NCCc2ccccn2)cc1`, the kinetic solubility came to 5.1 µg/mL (≈ 16.3 µM). `CCOC(=O)c1cc2c(nc1N)CCCC2` registered a kinetic solubility of 24.7 µg/mL (≈ 112 µM). As to `CC1CC(Nc2ccccc2)c2ccccc2N1C(=O)c1ccncc1` (centres undefined), the solubility (kinetic) was found to be 25.9 µg/mL (≈ 75.4 µM).

As for `CC(C)CN=CC1=C(O)c2ccccc2C1=O`, the kinetic solubility came out at 29.5 µg/mL (≈ 129 µM).

Regarding `O=C(O)CC(Sc1n[nH]c(=S)s1)C(=O)O` (centres undefined), the solubility (kinetic) is over 39.9 µg/mL.

For `CCN(CC)c1ccc(NC(=O)CN(C)Cc2cccs2)cc1`, the solubility (kinetic) was found to be 39.1 µg/mL (≈ 118 µM). Take `CC(NC(=O)COc1cccnc1[N+](=O)[O-])c1ccc(Cl)cc1Cl` (centres undefined): the kinetic solubility was 44.1 µg/mL (≈ 119 µM). `C1=C(c2c[nH]c3ccccc23)CCN(Cc2ccccc2)C1` registered a kinetic solubility of 7.2 µg/mL (≈ 25 µM).

For `O=C(CNC(=O)c1ccco1)OCc1ccccc1F`, the solubility (kinetic) is over 41.6 µg/mL. In turn, `CC(=O)c1c(C)[nH]c(C(=O)COC(=O)c2ccc(C)s2)c1C` came in with a solubility (kinetic) of 3.5 µg/mL (≈ 11 µM). In turn, `Oc1ccccc1N1CCN(C(c2ccccc2)c2ccccc2)CC1` gave a solubility (kinetic) of 0.4 µg/mL (≈ 1.16 µM). On to `Cc1nc(SCC(=O)Nc2ccc3[nH]c(=O)[nH]c3c2)nc(C)c1C`, for which the kinetic solubility was 15 µg/mL (≈ 43.7 µM).

Turning to `COc1ccccc1C(=O)NCCC(=O)NCC(c1ccccc1)N(C)C` (centres undefined), the solubility (kinetic) was over 55.4 µg/mL.

In turn, `COCc1[nH]c(=S)c(C#N)cc1C(=O)OC` came in with a solubility (kinetic) of 27.9 µg/mL (≈ 117 µM).

In turn, `COc1ccccc1NC(=O)c1ccc2c(c1)OCO2` showed a kinetic solubility of 39.7 µg/mL (≈ 146 µM). Consider `NS(=O)(=O)c1cc2c(cc1Cl)NC=NS2(=O)=O`, for which the kinetic solubility is over 44.4 µg/mL. Compound `CC(=O)Oc1ccc(-c2nc3ccccc3c(=O)o2)cc1` showed a kinetic solubility of 2.6 µg/mL (≈ 9.24 µM). For `COc1ccccc1N1CCN(C(=O)c2ccc(Br)o2)CC1` the value was over 54.8 µg/mL; for `COCCOC(=O)C1=C(C)NC(=S)NC1c1cccs1` (centres undefined), over 46.9 µg/mL. For `O=C(CCc1ccccc1)Nc1cccnc1Cl` the value was 35.1 µg/mL (≈ 135 µM); for `O=C(NCCc1ccncc1)Nc1ccc(F)cc1`, over 38.9 µg/mL.

For `CC1=CCC2C(=O)N(c3ccc(N4CCOCC4)cc3)C(=O)C2C1` (centres undefined), the kinetic solubility was 45.3 µg/mL (≈ 139 µM).

`O=c1c2ccccc2nc(Cc2ccccc2)n1-c1ccccc1O` returned a solubility (kinetic) of over 49.3 µg/mL. To `COC(=O)c1ccccc1NC(=O)CNC(=O)c1ccc(OC)cc1` belongs 45 µg/mL (≈ 131 µM); to `O=C(COC(=O)c1ccc(OC(F)(F)F)cc1)Nc1ncccn1`, 10.1 µg/mL (≈ 29.6 µM). For the compound `Cc1ccc(OC(=O)c2ccc(Cl)c([N+](=O)[O-])c2)cn1`, the solubility (kinetic) was determined as 42.8 µg/mL (≈ 146 µM). Consider `Cn1c(N)c(C(=O)COC(=O)C2CCCN2C(=O)c2cccs2)c(=O)n(C)c1=O` (centres undefined), for which the solubility (kinetic) amounted to 56.8 µg/mL (≈ 135 µM).

Regarding `CCOc1ccc(C2NC(=O)CCC2[N+](=O)[O-])cc1` (centres undefined), the solubility (kinetic) is over 39.6 µg/mL.

The compound `COc1ccc(CCNc2ccc([N+](=O)[O-])cn2)cc1` displayed a kinetic solubility of 7.1 µg/mL (≈ 26 µM). For `CN(CCC#N)Cc1cc(=O)oc2ccc3ccccc3c12` the value was 33.5 µg/mL (≈ 115 µM); for `CN1CCCC(OC(=O)c2ccccc2F)C1.Cl` (centres undefined), 39.7 µg/mL; for `O=C(c1ccc(F)cc1F)N1CCCc2ccccc21`, over 41 µg/mL. In turn, `Cc1ccc(C(=O)O/N=C(\N)c2ccccn2)c(C)c1` displayed a solubility (kinetic) of over 40.4 µg/mL. `Cn1cnc2cc(NCc3ccccc3Cl)ccc21` displayed a kinetic solubility of 34.7 µg/mL (≈ 128 µM). On to `O=C(CN1CCOCC1)Nc1c(Cl)cc(Cl)cc1Cl`, for which the solubility (kinetic) is over 48.5 µg/mL.

`O=C(COC(=O)c1ccc([N+](=O)[O-])o1)NC1CCCC1` came in with a kinetic solubility of 39.2 µg/mL (≈ 139 µM). `CCCOc1ccc(CSC(=N)N)cc1C(=O)OC.Cl` displayed a solubility (kinetic) of 42.6 µg/mL.

`CCOC(=O)c1c(CC(C)C)csc1NC(=O)c1ccccc1C(=O)O` returned a kinetic solubility of 54.1 µg/mL (≈ 144 µM). The compound `COCCCNC(=O)c1ccc(C2SCC(=O)N2Cc2ccco2)cc1` (centres undefined) had a kinetic solubility of 52.1 µg/mL (≈ 139 µM). For `C=Cc1ccc(N=Cc2c(O)ccc3ccccc23)cc1` the value was 0.9 µg/mL (≈ 3.29 µM); for `NC(=NCCc1c[nH]c2ccccc12)NC(=O)c1ccc(F)cc1`, over 48.7 µg/mL; for `C=CCNC(=O)c1cc2c(=O)n3cccc(C)c3nc2s1`, 3.4 µg/mL (≈ 11.4 µM).

On to `O=C(Cc1c(Cl)cccc1Cl)NC1=NCCS1`, for which the kinetic solubility worked out at 19.2 µg/mL (≈ 66.4 µM). The compound `C=CCCC(=O)N1CCCC(Cc2cccc(Cl)c2)(C(=O)OCC)C1` (centres undefined) had a solubility (kinetic) of over 54.6 µg/mL. `CC(=O)c1cccc(NC(=O)NCCc2ccc(Cl)cc2)c1`: the kinetic solubility came out at 1.6 µg/mL (≈ 5.05 µM). For `CCn1c(=S)[nH]c2cc(C(=O)O)ccc21` the value was over 33.3 µg/mL; for `CC(C)Cc1cc(C(=O)Nc2cccc(O)c2)no1`, 13.6 µg/mL (≈ 52.2 µM); for `Cc1ccc(NC(=O)CCc2nc3ccccc3[nH]2)cc1C`, 0.3 µg/mL (≈ 1.02 µM). To `CCN(CC)CCNc1oc(-c2ccccc2)nc1S(=O)(=O)c1ccccc1` belongs over 59.9 µg/mL. To `Cc1ccc(Cl)cc1NC(=O)CCCN1C(=O)c2cccnc2C1=O` belongs over 53.7 µg/mL; to `COC(=O)[C@H](Cc1ccccc1)NC(=O)[C@@H](N)CC(=O)O` (H-Asp-Phe-OMe), over 44.1 µg/mL; to `COCCNC(=O)C(=O)Nc1cc2c3c(c1)CCC(=O)N3CCC2`, 46.4 µg/mL (≈ 140 µM). For the compound `Cc1ccc(C(=O)NC2CCCCNC2=O)cc1` (centres undefined), the solubility (kinetic) came to 33.3 µg/mL (≈ 135 µM). For the compound `CC(C)(Cc1ccc(O)cc1)NC(=O)c1ccccc1`, the solubility (kinetic) was 36.7 µg/mL (≈ 136 µM). Take `O=C(NCCc1ccc(Cl)cc1)c1ccc2c(c1)OCO2`: the kinetic solubility was found to be 1.2 µg/mL (≈ 3.95 µM). The compound `CN(C)NC(=O)c1cccc(Cl)c1` had a solubility (kinetic) of over 29.8 µg/mL. Regarding `CCn1c(C)cc(C(=O)COC(=O)c2ccccc2[N+](=O)[O-])c1C`, the solubility (kinetic) turned out to be 15.3 µg/mL (≈ 46.3 µM).

In turn, `COc1ccc(NC2=C(NC(C)=O)C(=O)c3ccccc3C2=O)cc1` came in with a kinetic solubility of 49.5 µg/mL (≈ 147 µM). On to `O=C(NC(=O)c1ccc(F)cc1F)Nc1ccc(Cl)cc1`, for which the solubility (kinetic) amounted to 2.8 µg/mL (≈ 9.01 µM). With `OC(CNCc1cccs1)c1ccccc1` (centres undefined), the solubility (kinetic) is over 35 µg/mL. Compound `O=C(CCCNC(=O)c1ccc(Cl)cc1)Nc1ncccc1O` gave a solubility (kinetic) of over 50.1 µg/mL.

`Cc1onc(-c2c(F)cccc2Cl)c1C(O)c1ccc(F)cc1` (centres undefined) gave a kinetic solubility of over 50.4 µg/mL. For `CC(C)(C)S(=O)(=O)/C(C#N)=C/c1sccc1C1OCCO1` the value was 35.4 µg/mL (≈ 108 µM); for `COc1ccccc1OCCn1cc(C=O)c2ccccc21`, 7.8 µg/mL (≈ 26.4 µM). As for `COC(=O)c1ccn(CC(=O)NC2CCCCC2)n1`, the solubility (kinetic) was over 39.8 µg/mL. The compound `O=C(Cc1ccccc1)NCC(=O)OCc1cccc([N+](=O)[O-])c1` displayed a solubility (kinetic) of over 49.2 µg/mL. In turn, `CCC1CCc2sc(C(=O)NCC3CCCO3)cc2C1` (centres undefined) gave a kinetic solubility of 42.3 µg/mL (≈ 144 µM). Compound `O=C(Cn1ccc([N+](=O)[O-])n1)NCCc1c[nH]c2ccccc12` had a kinetic solubility of over 47 µg/mL. The compound `Cc1ccc(-c2csc(NC(=O)c3ccco3)n2)cc1C` gave a solubility (kinetic) of 0.7 µg/mL (≈ 2.35 µM). Take `Cc1ccc(S(=O)(=O)/N=C(\N)c2ccc(Cl)cc2)cc1`: the solubility (kinetic) was over 46.3 µg/mL. To `COc1cc(OC)c(C(=O)OCC(=O)c2ccc3c(c2)NC(=O)CO3)cc1OC` belongs 4.9 µg/mL (≈ 12.2 µM); to `CC(=O)Nc1ccc(NC(=S)NC(=O)c2ccc(-c3ccccc3)cc2)cc1`, 0.9 µg/mL (≈ 2.31 µM). The compound `O=C(CSc1nnc2ccccn12)NC(=O)c1ccccc1` had a kinetic solubility of over 46.9 µg/mL. `Nc1cccc(NC(=O)CCC(=O)NCc2ccco2)c1`: the solubility (kinetic) was over 43.1 µg/mL. `Cl.Oc1ccc(Nc2ncnc3ccccc23)cc1` showed a solubility (kinetic) of 13.7 µg/mL. For `O=C(NCCNC(=O)c1ccccn1)c1cccc(F)c1` the value was 41.7 µg/mL (≈ 145 µM); for `O=S(=O)(NC1CC2CCC1C2)c1ccc(Cl)cc1` (centres undefined), 38.4 µg/mL (≈ 134 µM); for `Cc1cccc(C)c1OCCNC(=O)OCc1ccccc1`, 15.8 µg/mL (≈ 52.8 µM). For `O=C(Nc1nc2ccccc2[nH]1)Nc1ccccc1F` the value was 3.3 µg/mL (≈ 12.2 µM). For `Cc1nnc(NC(=O)C(C)Sc2nnc(-c3ccco3)n2C)s1` (centres undefined) the value was over 52.6 µg/mL; for `Nc1cc(N)nc(SCC(=O)NCc2ccco2)n1`, over 41.9 µg/mL; for `Cc1ccc2c(c1)N(Cc1ccc([N+](=O)[O-])cc1)C=NS2(=O)=O`, 34.9 µg/mL (≈ 105 µM).

Compound `CC1CCN(CCc2nc3cc(NC(=O)C(C)C)ccc3n2C)CC1` returned a kinetic solubility of 36.7 µg/mL (≈ 107 µM). To `Cn1c(=O)c2[nH]c(SCC(=O)c3ccc(F)cc3)nc2n(C)c1=O` belongs 7.5 µg/mL (≈ 21.5 µM); to `O=C(CN1CCCCCC1)Nc1ccc(Cl)cc1F`, 28.1 µg/mL (≈ 98.7 µM).

The compound `O=C(c1cc(-c2cccc(O)c2)on1)N1CCCC1` returned a solubility (kinetic) of 32.6 µg/mL (≈ 126 µM). As to `O=C1CCN(S(=O)(=O)c2ccc(Br)cc2)CCN1`, the solubility (kinetic) worked out at 39.1 µg/mL (≈ 117 µM). For `Cc1ccc(NC(=O)CSc2cccc3cccnc23)c(C)c1` the value was 5.2 µg/mL (≈ 16.1 µM); for `O=C1CCCc2nc3c(cc21)C(O)Oc1ccccc1-3` (centres undefined), 19.4 µg/mL (≈ 72.6 µM). As for `COc1ccccc1C(O)c1nccn1C` (centres undefined), the kinetic solubility is over 32.7 µg/mL. `O=C(COC(=O)[C@H](Cc1ccccc1)NC(=O)c1ccco1)Nc1ccccc1`: the kinetic solubility was over 58.9 µg/mL.

On to `CSc1ccccc1C(=O)NCCSc1ccc(C)cc1`, for which the kinetic solubility was 17.2 µg/mL (≈ 54.2 µM). In the case of `CC(C)C(NC(=O)c1cccs1)C(=O)NC1CCCCC1` (centres undefined), the kinetic solubility came to 4.7 µg/mL (≈ 15.2 µM). The compound `CC(NC(=O)CSc1ncccc1C(=O)O)C1CC2CCC1C2` (centres undefined) displayed a solubility (kinetic) of over 50.2 µg/mL.

The compound `CC1CN(Cc2ccccc2)c2nc3c(c(=O)[nH]c(=O)n3C)n2C1` (centres undefined) showed a kinetic solubility of over 48.8 µg/mL.

Consider `COc1ccc(NC(=O)c2ccc(NC(=O)CN3CCC(C(N)=O)CC3)cc2)cc1`, for which the kinetic solubility was found to be 8.1 µg/mL (≈ 19.7 µM). Turning to `COc1ccc(Cl)cc1C(=O)Nc1cccc2ncccc12`, the kinetic solubility is 2.2 µg/mL (≈ 7.03 µM). As for `CC1Cc2ccccc2N1S(=O)(=O)c1cccc(C(=O)NCc2ccco2)c1` (centres undefined), the solubility (kinetic) amounted to 14.7 µg/mL (≈ 37.1 µM). With `CCNC(=O)c1ccccc1CCc1ccccc1`, the kinetic solubility is 32.7 µg/mL (≈ 129 µM). The compound `CC1=C(C#N)C2(O)C(=O)c3ccccc3C2(O)N1` (centres undefined) displayed a kinetic solubility of over 36.3 µg/mL.

`COc1cc(N/C(N)=N/c2nc(C)cc(C)n2)cc(OC)c1`: the kinetic solubility was over 45.2 µg/mL. `Cn1c(SCC(=O)NC2CCCC2)nnc1-c1ccco1` came in with a kinetic solubility of over 46 µg/mL.
